Here are results for 21 compounds from patent US20180244611A1, “Modulators of the Cystic Fibrosis Transmembrane Conductance Regulator Protein and Methods of Use” (AbbVie S.à.r.l., priority 2017, published 2018).

Molecules are shown by their SMILES.

In test [1] the target is T1, F508delCFTR (Homo sapiens, UniProt P13569, DEL508-508).
T1 construct: expressed in transfected cells; host or cells: CFBE41o- human lung-derived epithelial cells (CFBE41o-F508delCFTR-HRP), doxycycline-inducible
Put plainly: Cell Surface Expression-Horse Radish Peroxidase (CSE-HRP) assay, test compound without co-corrector.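 For Emax: percent of on-plate 2 µM positive control corrector response over DMSO.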 In kind it is cell-based. To be noted: for Emax: maximum at any tested concentration, normalized to positive control, without co-corrector; for EC50: test compound without co-corrector. Put shortly: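 Compound without co-corrector was tested at eight 3-fold concentrations, top 20 μM, for 18-24 h at 33° C on doxycycline-induced (0.5 μg/mL, 72 h) CFBE41o- F508delCFTR-HRP cells. After DPBS washes, luminol luminescence gave % activity relative to on-plate positive control minus DMSO; EC50 came from triplicate-plate sigmoidal fitting.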

Test [2] concerns the target T1, F508delCFTR. Put plainly: Cell Surface Expression-Horse Radish Peroxidase (CSE-HRP) assay, test compound with co-corrector.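 For Maximum % activity (with co-corrector): percent of 2 µM positive control corrector over DMSO; co-corrector is that same compound.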 In kind it is cell-based. To be noted: with 2 μM co-corrector; for Maximum % activity (with co-corrector): maximum at any tested concentration, normalized to positive control. Put shortly: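 Surface-expression read-out: luminol luminescence from an HRP tag in the fourth exofacial loop of F508delCFTR, in doxycycline-induced (0.5 μg/mL, 72 h) CFBE41o- cells. Compound plus 2 μM co-corrector added for 18-24 h at 33° C., 8-point 3-fold series up to 20 μM. EC50 from a sigmoidal fit with variable Hill slope, normalised to positive control, triplicate plates.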

T1 sequence (P13569 with tags, fused parts or gaps DEL508-508): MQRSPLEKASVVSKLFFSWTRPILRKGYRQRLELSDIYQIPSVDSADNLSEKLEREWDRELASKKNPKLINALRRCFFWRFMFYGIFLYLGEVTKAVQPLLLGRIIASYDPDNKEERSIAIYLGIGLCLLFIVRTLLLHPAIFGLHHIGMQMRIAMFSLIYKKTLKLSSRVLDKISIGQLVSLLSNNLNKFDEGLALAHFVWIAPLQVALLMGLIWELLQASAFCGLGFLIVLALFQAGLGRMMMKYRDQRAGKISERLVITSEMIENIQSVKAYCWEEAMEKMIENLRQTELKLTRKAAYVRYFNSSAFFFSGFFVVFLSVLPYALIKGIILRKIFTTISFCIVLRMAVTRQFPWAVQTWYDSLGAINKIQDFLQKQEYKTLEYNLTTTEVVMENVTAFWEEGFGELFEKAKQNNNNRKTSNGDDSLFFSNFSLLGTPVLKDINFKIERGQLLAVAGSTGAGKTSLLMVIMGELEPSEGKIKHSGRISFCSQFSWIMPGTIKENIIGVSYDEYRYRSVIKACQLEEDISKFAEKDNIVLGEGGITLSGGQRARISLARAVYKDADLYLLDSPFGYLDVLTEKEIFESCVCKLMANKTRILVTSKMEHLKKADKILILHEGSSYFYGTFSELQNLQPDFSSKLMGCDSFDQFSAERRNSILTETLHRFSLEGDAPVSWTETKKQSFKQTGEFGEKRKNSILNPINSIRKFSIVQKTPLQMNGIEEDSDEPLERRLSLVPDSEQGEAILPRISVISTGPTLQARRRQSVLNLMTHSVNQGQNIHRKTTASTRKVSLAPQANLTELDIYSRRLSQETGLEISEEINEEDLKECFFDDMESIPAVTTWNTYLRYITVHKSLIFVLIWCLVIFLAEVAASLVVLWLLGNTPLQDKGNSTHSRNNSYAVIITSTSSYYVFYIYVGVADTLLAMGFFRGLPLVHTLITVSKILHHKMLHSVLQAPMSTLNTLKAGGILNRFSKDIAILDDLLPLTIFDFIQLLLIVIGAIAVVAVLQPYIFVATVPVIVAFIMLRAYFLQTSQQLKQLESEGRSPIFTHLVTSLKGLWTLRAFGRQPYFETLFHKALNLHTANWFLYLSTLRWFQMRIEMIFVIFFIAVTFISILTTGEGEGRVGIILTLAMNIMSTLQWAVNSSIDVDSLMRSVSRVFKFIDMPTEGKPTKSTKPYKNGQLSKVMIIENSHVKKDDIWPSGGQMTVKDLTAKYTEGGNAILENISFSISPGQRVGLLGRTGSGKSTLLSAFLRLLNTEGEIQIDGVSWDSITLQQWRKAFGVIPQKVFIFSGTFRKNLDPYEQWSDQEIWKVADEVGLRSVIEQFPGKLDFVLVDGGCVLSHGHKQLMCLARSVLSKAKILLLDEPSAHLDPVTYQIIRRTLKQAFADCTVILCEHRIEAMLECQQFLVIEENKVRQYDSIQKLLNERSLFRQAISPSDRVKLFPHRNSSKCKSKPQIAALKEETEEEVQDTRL

On F508delCFTR [1], `COc1ncc(Br)c2c1C(C(=O)NS(=O)(=O)c1cccc3ccccc13)CC2` (stereo not drawn) [Example I-110, 4-bromo-1-methoxy-N-(naphthalene-1-sulfonyl)-6,7-dihydro-5H-cyclopenta[c]pyridine-7-carboxamide] showed a maximal response (Emax) of no less than 150% and a concentration giving a half-maximal response (EC50) of 3 to 10 µM. Besides, at F508delCFTR [2], the “Maximum % activity (with co-corrector)” value was “+++ (≥350)” and the concentration for a half-maximal effect (EC50) lay in the range of 3 to 10 µM.

At F508delCFTR [1], `COc1ncc(C2CCC2)c2c1C(C(=O)NS(=O)(=O)c1cccc3ccccc13)CC2` (stereo not drawn) [Example I-111, 4-cyclobutyl-1-methoxy-N-(naphthalene-1-sulfonyl)-6,7-dihydro-5H-cyclopenta[c]pyridine-7-carboxamide] displayed an Emax of no less than 150% and a concentration for a half-maximal effect (EC50) of 3 to 10 µM. For the same compound, on F508delCFTR [2], the “Maximum % activity (with co-corrector)” value was “+++ (≥350)” and the EC50 was in the range of 3 to 10 µM.

On F508delCFTR [1], `COc1ncc(Cl)c2c1C(C(=O)NS(=O)(=O)c1cccc3ccccc13)CC2` (stereo not drawn) [Example I-112, 4-chloro-1-methoxy-N-(naphthalene-1-sulfonyl)-6,7-dihydro-5H-cyclopenta[c]pyridine-7-carboxamide] registered an Emax of no less than 150% and an EC50 of 3 to 10 µM. In addition, on F508delCFTR [2], the “Maximum % activity (with co-corrector)” value is listed as “+++ (≥350)” and the concentration for a half-maximal effect (EC50) lay in the range of 3 to 10 µM.

With `COc1ncc(Br)c2c1C(C(=O)NS(=O)(=O)c1cccc3ccccc13)CCC2` (stereo not drawn) [Example I-113, 4-bromo-1-methoxy-N-(naphthalene-1-sulfonyl)-5,6,7,8-tetrahydroisoquinoline-8-carboxamide], on F508delCFTR [1], the maximal response (Emax) was no less than 150% and the EC50 is 3 to 10 µM. For the same compound, at F508delCFTR [2], the “Maximum % activity (with co-corrector)” value was “+++ (≥350)” and the EC50 is less than 3 µM.

On to `COc1ccc(C2CCC2)c2c1C(C(=O)NS(=O)(=O)c1cccc3ncccc13)C2` (stereo not drawn) [Example I-114, 2-cyclobutyl-5-methoxy-N-(quinoline-5-sulfonyl)bicyclo[4.2.0]octa-1,3,5-triene-7-carboxamide], for which, on F508delCFTR [1], the Emax is no less than 150% and the EC50 was less than 3 µM. Further, at F508delCFTR [2], the “Maximum % activity (with co-corrector)” value was “+++ (≥350)” and the EC50 is less than 3 µM.

For the compound `COc1ncc(Br)c2c1[C@@H](C(=O)NS(=O)(=O)c1cccc3ccccc13)CCC2` [Example I-115, (8S)-4-bromo-1-methoxy-N-(naphthalene-1-sulfonyl)-5,6,7,8-tetrahydroisoquinoline-8-carboxamide], at F508delCFTR [1], the Emax was no less than 150% and the concentration giving a half-maximal response (EC50) fell in the range of 3 to 10 µM. Moreover, on F508delCFTR [2], the “Maximum % activity (with co-corrector)” value is “+++ (≥350)” and the EC50 is less than 3 µM.

At F508delCFTR [1], `COc1ncc(Br)c2c1[C@H](C(=O)NS(=O)(=O)c1cccc3ccccc13)CCC2` [Example I-116, (8R)-4-bromo-1-methoxy-N-(naphthalene-1-sulfonyl)-5,6,7,8-tetrahydroisoquinoline-8-carboxamide] gave an Emax of no less than 150% and a half-maximal effective concentration (EC50) of less than 3 µM. For the same compound, at F508delCFTR [2], the “Maximum % activity (with co-corrector)” value was “+++ (≥350)” and the EC50 is less than 3 µM.

Take `COc1ccc(C(F)(F)F)c2c1[C@@H](C(=O)NS(=O)(=O)c1cccc3nc(C)ccc13)CC2` [Example I-117, (1S)-7-methoxy-N-(2-methylquinoline-5-sulfonyl)-4-(trifluoromethyl)-2,3-dihydro-1H-indene-1-carboxamide]: at F508delCFTR [1], the Emax is no less than 150% and the half-maximal effective concentration (EC50) lay within 3 to 10 µM. For the same compound, at F508delCFTR [2], the “Maximum % activity (with co-corrector)” value is “+++ (≥350)” and the EC50 was in the range of 3 to 10 µM.

On F508delCFTR [1], `COc1ccc(C(F)(F)F)c2c1[C@H](C(=O)NS(=O)(=O)c1cccc3nc(C)ccc13)CC2` [Example I-118, (1R)-7-methoxy-N-(2-methylquinoline-5-sulfonyl)-4-(trifluoromethyl)-2,3-dihydro-1H-indene-1-carboxamide] returned a maximal response (Emax) of no less than 150% and a 50% effective concentration (EC50) of less than 3 µM. Moreover, on F508delCFTR [2], the “Maximum % activity (with co-corrector)” value is given as “+++ (≥350)” and the EC50 is less than 3 µM.

At F508delCFTR [1], `COc1ccc(C2CCC2)c2c1C(C(=O)NS(=O)(=O)c1cccc3c1NCCC3)CC2` (stereo not drawn) [Example I-119, 4-cyclobutyl-7-methoxy-N-(1,2,3,4-tetrahydroquinoline-8-sulfonyl)-2,3-dihydro-1H-indene-1-carboxamide] displayed a maximal response (Emax) of no less than 150% and a concentration giving a half-maximal response (EC50) of 3 to 10 µM. In addition, at F508delCFTR [2], the “Maximum % activity (with co-corrector)” value is recorded as “+++ (≥350)” and the EC50 was in the range of 3 to 10 µM.

Regarding `COc1ncc(C2CCC2)c2c1[C@H](C(=O)NS(=O)(=O)c1cccc3ccccc13)CCC2` [Example I-120, (8R)-4-cyclobutyl-1-methoxy-N-(naphthalene-1-sulfonyl)-5,6,7,8-tetrahydroisoquinoline-8-carboxamide], at F508delCFTR [1], the Emax was no less than 150% and the half-maximal effective concentration (EC50) was less than 3 µM. Further, on F508delCFTR [2], the “Maximum % activity (with co-corrector)” value was “+++ (≥350)” and the half-maximal effective concentration (EC50) was less than 3 µM.

`COc1ncc(C2CCC2)c2c1[C@@H](C(=O)NS(=O)(=O)c1cccc3ccccc13)CCC2` [Example I-121, (8S)-4-cyclobutyl-1-methoxy-N-(naphthalene-1-sulfonyl)-5,6,7,8-tetrahydroisoquinoline-8-carboxamide]: on F508delCFTR [1], the Emax was no less than 150% and the EC50 fell in the range of 3 to 10 µM. Moreover, on F508delCFTR [2], the “Maximum % activity (with co-corrector)” value is “+++ (≥350)” and the concentration giving a half-maximal response (EC50) lay in the range of 3 to 10 µM.

Consider `COc1ccc(C2CCC2)c2c1[C@@H](C(=O)NS(=O)(=O)c1cccc3c1CCCN3)CC2` [Example I-122, (1S)-4-cyclobutyl-7-methoxy-N-(1,2,3,4-tetrahydroquinoline-5-sulfonyl)-2,3-dihydro-1H-indene-1-carboxamide], for which, on F508delCFTR [1], the maximal effect (Emax) is no less than 150% and the 50% effective concentration (EC50) is 3 to 10 µM. On F508delCFTR [2], the “Maximum % activity (with co-corrector)” value is on record as “+++ (≥350)” and the concentration for a half-maximal effect (EC50) was 3 to 10 µM.

With `COc1ccc(C2CCC2)c2c1[C@@H](C(=O)NS(=O)(=O)c1cccc3ncn(C)c13)CC2` [Example I-123, (1S)-4-cyclobutyl-7-methoxy-N-(1-methyl-1H-benzimidazole-7-sulfonyl)-2,3-dihydro-1H-indene-1-carboxamide], on F508delCFTR [1], the Emax is no less than 150% and the concentration giving a half-maximal response (EC50) fell in the range of 3 to 10 µM. For the same compound, at F508delCFTR [2], the “Maximum % activity (with co-corrector)” value is listed as “+++ (≥350)” and the EC50 is less than 3 µM.

Regarding `C=C(C)c1ccc(OC)c2c1CCC2C(=O)NS(=O)(=O)c1cccc2ccccc12` (stereo not drawn) [Example I-124, 7-methoxy-N-(naphthalene-1-sulfonyl)-4-(prop-1-en-2-yl)-2,3-dihydro-1H-indene-1-carboxamide], at F508delCFTR [1], the Emax is no less than 150% and the EC50 was less than 3 µM. Besides, on F508delCFTR [2], the “Maximum % activity (with co-corrector)” value is “+++ (≥350)” and the EC50 is less than 3 µM.

On F508delCFTR [1], `COc1ccc(C(C)(C)O)c2c1C(C(=O)NS(=O)(=O)c1cccc3ccccc13)CC2` (stereo not drawn) [Example I-125, 4-(2-hydroxypropan-2-yl)-7-methoxy-N-(naphthalene-1-sulfonyl)-2,3-dihydro-1H-indene-1-carboxamide] registered an Emax of 50 to 150% and an EC50 of 3 to 10 µM. Moreover, at F508delCFTR [2], the “Maximum % activity (with co-corrector)” value is listed as “+++ (≥350)” and the EC50 was 3 to 10 µM.

As to `COc1ccc(C2CCC2)c2c1[C@H](C(=O)NS(=O)(=O)c1cccc3ncn(C)c13)CC2` [Example I-126, (1R)-4-cyclobutyl-7-methoxy-N-(1-methyl-1H-benzimidazole-7-sulfonyl)-2,3-dihydro-1H-indene-1-carboxamide], at F508delCFTR [1], the Emax was no less than 150% and the concentration giving a half-maximal response (EC50) is less than 3 µM. On F508delCFTR [2], the “Maximum % activity (with co-corrector)” value is on record as “+++ (≥350)” and the EC50 was less than 3 µM.

In the case of `COc1ccc(C2CCC2)c2c1[C@@H](C(=O)NS(=O)(=O)c1cccc3nc(C)ccc13)CC2` [Example I-127, (1S)-4-cyclobutyl-7-methoxy-N-(2-methylquinoline-5-sulfonyl)-2,3-dihydro-1H-indene-1-carboxamide], at F508delCFTR [1], the maximal response (Emax) is no less than 150% and the EC50 lay within 3 to 10 µM. Also, on F508delCFTR [2], the “Maximum % activity (with co-corrector)” value is reported as “+++ (≥350)” and the 50% effective concentration (EC50) is less than 3 µM.

As for `COc1ccc(C2CCC2)c2c1[C@H](C(=O)NS(=O)(=O)c1cccc3nc(C)ccc13)CC2` [Example I-128, (1R)-4-cyclobutyl-7-methoxy-N-(2-methylquinoline-5-sulfonyl)-2,3-dihydro-1H-indene-1-carboxamide], at F508delCFTR [1], the Emax is no less than 150% and the EC50 lay within 3 to 10 µM. Besides, on F508delCFTR [2], the “Maximum % activity (with co-corrector)” value is given as “+++ (≥350)” and the half-maximal effective concentration (EC50) is less than 3 µM.

On F508delCFTR [1], `COc1ccc(C2CCC2)c2c1[C@H](C(=O)NS(=O)(=O)c1cccc3c1CCCN3)CC2` [Example I-129, (1R)-4-cyclobutyl-7-methoxy-N-(1,2,3,4-tetrahydroquinoline-5-sulfonyl)-2,3-dihydro-1H-indene-1-carboxamide] yielded an Emax of no less than 150% and a half-maximal effective concentration (EC50) of less than 3 µM. Further, on F508delCFTR [2], the “Maximum % activity (with co-corrector)” value is “+++ (≥350)” and the EC50 is less than 3 µM.

At F508delCFTR [1], `COc1ccc(C2CCC2)c2c1C(C(=O)NS(=O)(=O)c1cccc3cnn(C)c13)C2` (stereo not drawn) [Example I-132, 2-cyclobutyl-5-methoxy-N-(1-methyl-1H-indazole-7-sulfonyl)bicyclo[4.2.0]octa-1,3,5-triene-7-carboxamide] came in with a maximum response (Emax) of no less than 150% and an EC50 of less than 3 µM. At F508delCFTR [2], the “Maximum % activity (with co-corrector)” value is “+++ (≥350)” and the 50% effective concentration (EC50) is less than 3 µM.
